Several values for one entry are separate records, joined by “and”; a condition that tells them apart may be missing. Equal values may be shown once.
Target: Glycogen synthase kinase-3 beta (Homo sapiens, UniProt P49841)
Assay: TR-FRET Assay
Description: The assay was performed in a white, 384 well, low volume, flat bottom plate (Grenier). […] The kinase activity was quenched with 2 μL of 250 mM EDTA. A 10 μL volume of 40 nM Strepavidin-d2, 2 nM Tb2+-pSer641 antibody in TR-FRET Detection Buffer (Invitrogen) was then added.

Glycogen synthase kinase-3 beta, sequence (P49841 whole entry): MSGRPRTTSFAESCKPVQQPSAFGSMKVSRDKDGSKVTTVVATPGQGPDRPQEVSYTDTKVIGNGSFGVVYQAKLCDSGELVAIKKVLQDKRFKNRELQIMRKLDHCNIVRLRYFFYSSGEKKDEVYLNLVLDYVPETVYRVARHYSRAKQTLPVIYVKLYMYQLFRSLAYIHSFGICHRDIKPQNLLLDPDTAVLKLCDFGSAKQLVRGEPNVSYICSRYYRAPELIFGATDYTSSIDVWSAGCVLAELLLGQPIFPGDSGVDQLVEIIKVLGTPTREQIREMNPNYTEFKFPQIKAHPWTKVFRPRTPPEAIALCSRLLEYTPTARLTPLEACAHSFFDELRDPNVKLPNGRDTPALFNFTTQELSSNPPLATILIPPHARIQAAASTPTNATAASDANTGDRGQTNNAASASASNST

Row | SMILES | IC50
1 | CC[C@@]1(c2cccc(OC)c2)C2=CN=NC2NC2=C1C(=O)C[C@H](C)C2 (stereo not given in full) [US20250313563, Compound 811559] | 100 to 1000 nM
2 | CC(C)(C)CC1N=NC2=C1C1(CN(c3ccccc3)C1)C1=C(CC(C)(C)CC1=O)N2 (stereo not given) [US20250313563, Compound 93429] | 1000 to 5000 nM and 134 nM
3 | CC[C@@]1(c2cccc(C(F)(F)F)c2)C2=C(N=NC2)NC2=C1C(=O)N(C)[C@@H]2C [US20250313563, Compound 913475] | > 5000 nM
4 | CC[C@@]1(c2cccc(C(F)(F)F)c2)C2=CN=NC2NC2=C1C(=O)N(CC(F)(F)F)CC2 (stereo not given in full) [US20250313563, Compound 912206] | 100 to 1000 nM
5 | CC[C@@]1(c2cccc(S(=O)(=O)C(C)C)c2)C2=C(CC(C)(C)NC2=O)NC2N=NC(C)=C21 (stereo not given in full) [US20250313563, Compound 947876] | 100 to 1000 nM
6 | CC1(C)CC(=O)C2=C(C1)NC1=C(CN=N1)[C@]21CCN(S(=O)(=O)c2ccccc2)C1 [US20250313563, Compound 951787] | 100 to 1000 nM
7 | COC(=O)C1(c2ccccc2)CC2(C1)C1=C(N=NC1)NC1=C2C(=O)CC(C)(C)C1 (stereo not given) [US20250313563, Compound 942344] | 100 to 1000 nM
8 | CC[C@@]1(c2cccc(-c3ccnc(C)c3)c2)C2=CN=NC2NC2=C1C(=O)N[C@]1(CCCOC1)C2 (stereo not given in full) [US20250313563, Compound 948152] | 100 to 1000 nM
9 | CC[C@]1(c2cccc(S(=O)(=O)C(C)C)c2)C2=C(CC(C)(C)NC2=O)NC2=C1C(C)N=N2 (stereo not given in full) [US20250313563, Compound 947870] | 100 to 1000 nM
10 | Cn1ccc(S(=O)(=O)N2CC[C@@]3(C2)C2=C(N=NC2)NC2=C3C(=O)CC(C)(C)C2)n1 [US20250313563, Compound 945712] | 100 to 1000 nM
11 | CC[C@]1(c2cccc(C(F)(F)F)c2)C2=CN=NC2NC2=C1C(=O)N(c1cnn(C)c1)CC2 (stereo not given in full) [US20250313563, Compound 949270] | 100 to 1000 nM
12 | COc1cccc(S(=O)(=O)N2CCC3(CC2)C2=C(N=NC2)NC2=C3C(=O)CC(C)(C)C2)c1 [US20250313563, Compound 943962] | 100 to 1000 nM
13 | CC[C@]1(c2cccc(C(F)(F)F)c2)C2=C(N=NC2)NC2=C1C(=O)N[C@@H]2C [US20250313563, Compound 945378] | 100 to 1000 nM
14 | CC[C@]1(c2cccc(C(F)(F)F)c2)C2=CN=NC2NC2=C1C(=O)N(c1ccccc1C)CC2 (stereo not given in full) [US20250313563, Compound 949128] | 100 to 1000 nM
15 | CC[C@@]1(c2cccc(C(F)(F)F)c2)C2=CN=NC2NC2=C1C(=O)C[C@]1(CCNC1=O)C2 (stereo not given in full) [US20250313563, Compound 950324] | 100 to 1000 nM
16 | CCC1(c2cccc(C(F)(F)F)c2)C2=C(N=NC2)NC2=C1C(=O)N(C)C2C (stereo not given) [US20250313563, Compound 911957] | 100 to 1000 nM
17 | CC1(C)CC(=O)C2=C(C1)NC1=C(CN=N1)[C@@]21COC2(CN(C(=O)C3(F)CCC3)C2)C1 [US20250313563, Compound 947736] | 100 to 1000 nM
18 | CCC1(c2cccc(-c3cc(C)nnc3C)c2)C2=C(CC(C)(C)NC2=O)NC2N=NC(C)=C21 (stereo not given) [US20250313563, Compound 948766] | 100 to 1000 nM
19 | CC1(C)CC(=O)C2=C(C1)NC1=C(CN=N1)[C@]21CCN(S(=O)(=O)c2ccccc2F)C1 [US20250313563, Compound 943487] | 100 to 1000 nM
20 | CC[C@@]1(c2cccc(C(F)(F)F)c2)C2=CN=NC2NC2=C1C(=O)NC[C@@H]2C (stereo not given in full) [US20250313563, Compound 945382] | 100 to 1000 nM
21 | CC[C@@]1(c2cccc(N3CCCCC3)c2)C2=C(CC(C)(C)NC2=O)NC2N=NC(C(F)(F)F)=C21 (stereo not given in full) [US20250313563, Compound 949183] | 100 to 1000 nM
22 | CC(C)(C)CC1N=NC2=C1[C@@](C)(c1ccccc1)C1=C(CC(C)(C)NC1=O)N2 (stereo not given in full) [US20250313563, Compound 114532] | > 5000 nM
23 | CC[C@]1(c2cccc(C(F)(F)F)c2)C2=CN=NC2NC2=C1C(=O)N(c1ccn(C)n1)CC2 (stereo not given in full) [US20250313563, Compound 949835] | 100 to 1000 nM
24 | CC[C@]1(c2cccc(C(F)(F)F)c2)C2=CN=NC2NC2=C1C(=O)N(c1cnc(OC)nc1)[C@H](C)C2 (stereo not given in full) [US20250313563, Compound 949351] | 100 to 1000 nM
25 | Cc1ccc(C(=O)N2CC3(C2)C[C@]2(CO3)C3=C(N=NC3)NC3=C2C(=O)CC(C)(C)C3)cc1C [US20250313563, Compound 948038] | < 100 nM and 100 to 1000 nM
26 | CC[C@]1(c2cccc(C(F)(F)F)c2)C2=CN=NC2NC2=C1C(=O)N(c1cccc(C)c1)CC2 (stereo not given in full) [US20250313563, Compound 949040] | 100 to 1000 nM

The next lines start with the values.

Row | IC50 | SMILES
27 | 100 to 1000 nM | CCC1(c2cccc(N3CCC[C@H]3C)c2)C2=CN=NC2NC2=C1C(=O)CC(C)(C)C2 (stereo not given in full) [US20250313563, Compound 885204]
28 | 100 to 1000 nM | CC[C@@]1(c2cccc(Oc3ncccn3)c2)C2=CN=NC2NC2=C1C(=O)CC(C)(C)C2 (stereo not given in full) [US20250313563, Compound 947808]
29 | 100 to 1000 nM | CC[C@]1(c2cccc(-c3c(F)cncc3OC)c2)C2=CN=NC2NC2=C1C(=O)CC(C)(C)[C@H]2F (stereo not given in full) [US20250313563, Compound 948545]
30 | 100 to 1000 nM | CC[C@@]1(c2cccc(OC)c2)C2=C(CC(C)(C)CC2=O)NC2N=NC(C(=O)OC)=C21 (stereo not given in full) [US20250313563, Compound 901480]
31 | 100 to 1000 nM | CC[C@@]1(c2cccc(-c3cnn(C)c3C#N)c2)C2=CN=NC2NC2=C1C(=O)NC(C)(C)C2 (stereo not given in full) [US20250313563, Compound 948827]
32 | < 100 nM and 100 to 1000 nM | CC[C@@]1(c2cccc(-c3cncn3C(C)C)c2)C2=CN=NC2NC2=C1C(=O)CC(C)(C)C2 (stereo not given in full) [US20250313563, Compound 945725]
33 | 100 to 1000 nM | CC[C@]1(c2cccc(-c3ccnn3C)c2)C2=CN=NC2NC2=C1C(=O)NC1(CCOCC1)C2 (stereo not given in full) [US20250313563, Compound 948516]
34 | 100 to 1000 nM | CC[C@]1(c2cccc(-c3ccncc3C)c2)C2=CN=NC2NC2=C1C(=O)NC1(CCC1)C2 (stereo not given in full) [US20250313563, Compound 948523]
35 | 100 to 1000 nM | CC[C@]1(c2cccc(-c3cn(C)nc3C(F)(F)F)c2)C2=CN=NC2NC2=C1C(=O)NC(C)(C)C2 (stereo not given in full) [US20250313563, Compound 949266]
36 | 100 to 1000 nM | CC[C@]1(c2cccc(-c3ccncc3OC)c2)C2=CN=NC2NC2=C1C(=O)CC(C)(C)C2 (stereo not given in full) [US20250313563, Compound 945481]
37 | 1000 to 5000 nM | CC[C@]1(c2cccc(-c3ccncc3C)c2)C2=CN=NC2NC2=C1C(=O)NC(C)(C)C2 (stereo not given in full) [US20250313563, Compound 947576]
38 | < 100 nM and 100 to 1000 nM | CC[C@]1(c2cccc(-c3cnn(C)c3C)c2)C2=C(CC(C)(C)CC2=O)NC2N=NC(C)=C21 (stereo not given in full) [US20250313563, Compound 913045]
39 | 100 to 1000 nM | CC[C@]1(c2cccc(Br)c2)C2=CN=NC2NC2=C1C(=O)[C@H](F)C(C)(C)C2 (stereo not given in full) [US20250313563, Compound 835314]
40 | 100 to 1000 nM | CC[C@]1(c2cccc(-c3ccnn3C)c2)C2=CN=NC2NC2=C1C(=O)CC(C)(C)C2 (stereo not given in full) [US20250313563, Compound 911992]
41 | 100 to 1000 nM | CC[C@]1(c2cccc(-c3ccncc3F)c2)C2=CN=NC2NC2=C1C(=O)CC(C)(C)C2 (stereo not given in full) [US20250313563, Compound 943518]
42 | 100 to 1000 nM | CCCn1nccc1-c1cccc([C@]2(CC)C3=CN=NC3NC3=C2C(=O)CC(C)(C)C3)c1 (stereo not given in full) [US20250313563, Compound 946093]
43 | 100 to 1000 nM | CC[C@]1(c2cccc(S(=O)(=O)CC3CC3)c2)C2=CN=NC2NC2=C1C(=O)CC(C)(C)C2 (stereo not given in full) [US20250313563, Compound 917150]

Row | IC50 | SMILES
44 | 100 to 1000 nM | CC[C@@]1(c2cccc(C3=CN=NC3)c2)C2=C(CC(C)(C)CC2=O)NC2N=NC(C)=C21 (stereo not given in full) [US20250313563, Compound 913025]
45 | 100 to 1000 nM | CC[C@@]1(c2cccc(-c3c(F)cncc3OC)c2)C2=CN=NC2NC2=C1C(=O)CC(C)(C)[C@@H]2F (stereo not given in full) [US20250313563, Compound 948548]
46 | 100 to 1000 nM | CC[C@]1(c2cccc(-c3c(F)cncc3OC)c2)C2=CN=NC2NC2=C1C(=O)CC(C)(C)[C@@H]2F (stereo not given in full) [US20250313563, Compound 948546]
47 | 100 to 1000 nM | CC[C@@]1(c2cccc(-c3cc(C)nn3C)c2)C2=CN=NC2NC2=C1C(=O)CC(C)(C)C2 (stereo not given in full) [US20250313563, Compound 946097]
48 | 1000 to 5000 nM | CC[C@@]1(c2cccc(-c3cn(C)nc3C)c2)C2=CN=NC2NC2=C1C(=O)N(C)C(C)(C)C2 (stereo not given in full) [US20250313563, Compound 949005]
49 | 100 to 1000 nM | CC[C@]1(c2cccc(-c3cc(C)nn3C)c2)C2=CN=NC2NC2=C1C(=O)NC(C)(C)C2 (stereo not given in full) [US20250313563, Compound 943966]
50 | 100 to 1000 nM | CC[C@]1(c2cccc(N(C)c3ccnc(OC)c3)c2)C2=CN=NC2NC2=C1C(=O)CC(C)(C)C2 (stereo not given in full) [US20250313563, Compound 932642]
51 | 1000 to 5000 nM | CC[C@]1(c2cccc(-c3ccnc(C)c3)c2)C2=CN=NC2NC2=C1C(=O)NC(C)(COC)C2 (stereo not given in full) [US20250313563, Compound 948521]
52 | 100 to 1000 nM | CC[C@]1(c2cccc(-c3ccncc3F)c2)C2=C(CC(C)(C)CC2=O)NC2N=NC(C)=C21 (stereo not given in full) [US20250313563, Compound 913052]
53 | 100 to 1000 nM | CC[C@]1(c2cccc(COC)c2)C2=CN=NC2NC2=C1C(=O)CC(C)(C)C2 (stereo not given in full) [US20250313563, Compound 810360]
54 | 100 to 1000 nM | CC[C@]1(c2cccc(Nc3ncccn3)c2)C2=CN=NC2NC2=C1C(=O)CC(C)(C)C2 (stereo not given in full) [US20250313563, Compound 945943]
55 | < 100 nM and 100 to 1000 nM | CC[C@]1(c2cccc(-c3c(C)cncc3C)c2)C2=CN=NC2NC2=C1C(=O)CC(C)(C)C2 (stereo not given in full) [US20250313563, Compound 947658]
56 | 100 to 1000 nM | CC[C@]1(c2cccc(-c3cnn(C)c3)c2)C2=CN=NC2NC2=C1C(=O)C[C@H](C)C2 (stereo not given in full) [US20250313563, Compound 823720]
57 | < 100 nM and 100 to 1000 nM | CC[C@]1(c2cccc(S(C)(=O)=O)c2)C2=CN=NC2NC2=C1C(=O)CC(C)(C)C2 (stereo not given in full) [US20250313563, Compound 826718]
58 | 100 to 1000 nM | CC[C@@]1(c2cccc(S(=O)(=O)C(C)C)c2)C2=CN=NC2NC2=C1C(=O)CC(C)(C)C2 (stereo not given in full) [US20250313563, Compound 913135]
59 | 100 to 1000 nM | CC[C@]1(c2cccc(-c3cnn4c3CCCC4)c2)C2=C(CC(C)(C)CC2=O)NC2N=NC(C)=C21 (stereo not given in full) [US20250313563, Compound 913036]
60 | 100 to 1000 nM | CC[C@]1(c2cccc(-c3cc(C)ncc3C)c2)C2=C(CC(C)(C)CC2=O)NC2N=NC(C(F)(F)F)=C21 (stereo not given in full) [US20250313563, Compound 947363]

— BindingDB's records for patent US20250313563 (The Broad Institute, 2025)
